Assay results from ChEMBL document CHEMBL4665624, “Synthesis of 5-(4-(1H-phenanthro[9,10-d]imidazol-2-yl)benzylidene)thiazolidine-2,4-dione as promising DNA and serum albumin-binding agents and evaluation of antitumor activity” (Eur J Med Chem, 2019).
Active and inactive are the calls of the source. The calls are words filed in the database; no cut-off is given here.

Legend:
Calf thymus DNA [1] = test: Binding affinity to calf thymus DNA assessed as quenching constant by fluorescence emission spectroscopic analysis; format: nucleic-acid assay; conditions: Bos taurus
HEK293 [2] = test: Cytotoxicity against human HEK293 assessed as reduction in cell viability at 0.01 uM after 48 hrs by MTT assay; format: cell-based; conditions: hek293, 48 h
Calf thymus DNA [3] = test: Binding affinity to calf thymus DNA assessed as binding constant by fluorescence emission spectroscopic analysis; format: nucleic-acid assay; conditions: Bos taurus
CCRF-CEM = test: Antitumor activity against human CCRF-CEM cells assessed as cell growth inhibition at 10 uM incubated for 48 hrs by sulforhodamine B assay; format: functional; conditions: read-out: GI
A549 = test: Cytotoxicity against human A549/ATCC assessed as reduction in cell viability at 0.01 uM after 48 hrs by MTT assay; format: functional
OVCAR-4 = test: Antitumor activity against human OVCAR-4 cells assessed as cell growth inhibition at 10 uM incubated for 48 hrs by sulforhodamine B assay; format: functional; conditions: read-out: GI
UO-31 = test: Antitumor activity against human UO-31 cells assessed as cell growth inhibition at 10 uM incubated for 48 hrs by sulforhodamine B assay; format: functional; conditions: read-out: GI
SK-OV-3 = test: Antitumor activity against human SK-OV-3 cells assessed as cell growth inhibition at 10 uM incubated for 48 hrs by sulforhodamine B assay; format: functional; conditions: read-out: GI
K562 = test: Antitumor activity against human K562 cells assessed as cell growth inhibition at 10 uM incubated for 48 hrs by sulforhodamine B assay; format: functional; conditions: read-out: GI
MDA-MB-468 = test: Antitumor activity against human MDA-MB-468 cells assessed as cell growth inhibition at 10 uM incubated for 48 hrs by sulforhodamine B assay; format: functional; conditions: read-out: GI
UACC-62 = test: Antitumor activity against human UACC-62 cells assessed as cell growth inhibition at 10 uM incubated for 48 hrs by sulforhodamine B assay; format: functional; conditions: read-out: GI
HT-29 = test: Antitumor activity against human HT-29 cells assessed as cell growth inhibition at 10 uM incubated for 48 hrs by sulforhodamine B assay; format: functional; conditions: read-out: GI
Albumin = Albumin (Bos taurus, UniProt P02769); test: Binding affinity to bovine serum albumin assessed as binding constant at 298K by fluorescence emission spectrum analysis; format: ADME, cell-free; conditions: cattle
Chain of Albumin (P02769 whole entry): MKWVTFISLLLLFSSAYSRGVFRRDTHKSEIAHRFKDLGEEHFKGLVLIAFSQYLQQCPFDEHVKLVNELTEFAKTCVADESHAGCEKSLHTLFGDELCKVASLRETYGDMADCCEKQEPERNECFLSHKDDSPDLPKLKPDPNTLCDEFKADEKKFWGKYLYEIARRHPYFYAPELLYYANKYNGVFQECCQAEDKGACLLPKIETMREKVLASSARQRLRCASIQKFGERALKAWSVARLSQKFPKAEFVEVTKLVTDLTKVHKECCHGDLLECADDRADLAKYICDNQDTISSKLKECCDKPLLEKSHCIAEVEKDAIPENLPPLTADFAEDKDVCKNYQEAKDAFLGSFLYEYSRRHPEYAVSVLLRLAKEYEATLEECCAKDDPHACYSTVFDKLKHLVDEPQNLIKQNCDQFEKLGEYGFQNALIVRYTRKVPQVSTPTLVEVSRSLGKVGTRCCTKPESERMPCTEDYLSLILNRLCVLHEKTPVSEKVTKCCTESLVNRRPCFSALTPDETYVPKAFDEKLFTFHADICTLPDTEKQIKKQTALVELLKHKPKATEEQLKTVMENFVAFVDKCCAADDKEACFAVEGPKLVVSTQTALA

NCI/ADR-RES = test: Antitumor activity against human NCI/ADR-RES cells assessed as cell growth inhibition at 10 uM incubated for 48 hrs by sulforhodamine B assay; format: functional; conditions: read-out: GI
HEK293 [4] = test: Cytotoxicity against human HEK293 assessed as reduction in cell viability at 0.1 uM after 48 hrs by MTT assay; format: cell-based; conditions: hek293, 48 h
Calf thymus DNA [5] = test: Binding affinity to minor groove of calf thymus DNA assessed as ICD band intensity between 350 and 400 nm at 1 uM by CD spectroscopy; format: nucleic-acid assay; conditions: Bos taurus
SW-620 = test: Antitumor activity against human SW620 cells assessed as cell growth inhibition at 10 uM incubated for 48 hrs by sulforhodamine B assay; conditions: SW-620, 48 h, read-out: GI

O=C1NC(=O)/C(=C/c2ccc(-c3nc4c5ccccc5c5ccccc5c4[nH]3)cc2)S1
Kq (Calf thymus DNA [1]): 1.88 10^11/M/s
Activity (HEK293 [2]): 4%
Kb (Calf thymus DNA [3]): 1.95 10^5/M
inhibition of growth at 10 µM (CCRF-CEM): 65.2%
Activity (A549): 42%
inhibition of growth at 10 µM (OVCAR-4): < 10%
inhibition of growth at 10 µM (UO-31): 25.5%
inhibition of growth at 10 µM (SK-OV-3): < 10%
inhibition of growth at 10 µM (K562): 68.1%
inhibition of growth at 10 µM (MDA-MB-468): 51.7%
inhibition of growth at 10 µM (UACC-62): 30.3%
inhibition of growth at 10 µM (HT-29): 24%
Kb (Albumin): 4.06 10^6/M
inhibition of growth at 10 µM (NCI/ADR-RES): < 10%
Activity (HEK293 [4]): 5%
Activity (Calf thymus DNA [5]): inactive
inhibition of growth at 10 µM (SW-620): 22.8%
